{"source": "patent US12269826B1", "about": "“7H-pyrido[4′,3′:4,5]pyrrolo[2,3-c][1,7]naphthyridine compounds as CK2 inhibitors” (KING FAISAL UNIVERSITY, priority 2023, dated 2025)", "key": {"[1]": {"test_system": "PC3 (prostate)", "assay": "In vitro cytotoxic activity (MTT) assay, PC3", "type": "cell-based", "settings": "Homo sapiens; cells exposed for 96 hours; 50% inhibition of cell proliferation; read-out: Cytotoxicity activity IC50, PC3 (prostate)", "procedure": "(§1) Compounds 1-16 were screened for their in vitro cytotoxic activity utilizing a 3-(4,5-dimethyl-thiazol-2-yl)-2,5-diphenyltetrazolium bromide (MTT) assay against selected cancer human cell lines consisting of PC3 (prostate), HCT116 (colon), A375 (melanoma), H1299 (lung), MIAPaCa-2 (pancreas), HL60 (leukemia), MCF7 (breast), MDA-MB-231 (breast) (T. Mosmann, J. Immunol. Meth., 1983, 65, 55-63). The cells were cultured at 37° C. in RMPI1640 medium supplemented with 10% fetal bovine serum, 50 IU/mL penicillin, and 50 μg/mL streptomycin in a 5% CO2 incubator. All cells were sub-cultured 3 times/week by trypsinisation. Viable cells were seeded and allowed to adhere for 12 h before a test drug was added in 96-well plates at an initial density of 1.0×10^5 cells/mL. Tumor cell lines were separately exposed to various concentrations of the tested compounds followed by incubation at a temperature of 37° C. during 96 hours inside a medium of fresh RMPI 1640. Cells were subsequently incubated at 37° C. using MTT at 0.5 mg/mL during 4 hours. After removal of supernatant, formazan crystals were dissolved in isopropanol and the optical density was measured at 570 nm. CX-4945 was used as a positive control."}, "[2]": {"test_system": "HCT116 (colon)", "assay": "In vitro cytotoxic activity (MTT) assay, HCT116", "type": "cell-based", "settings": "Homo sapiens, HCT-116; cells exposed for 96 hours; 50% inhibition of cell proliferation; read-out: Cytotoxicity activity IC50, HCT116 (colon)", "procedure": "as §1"}, "[3]": {"test_system": "A375 (melanoma)", "assay": "In vitro cytotoxic activity (MTT) assay, A375", "type": "cell-based", "settings": "Homo sapiens, A-375; cells exposed for 96 hours; 50% inhibition of cell proliferation; read-out: Cytotoxicity activity IC50, A375 (melanoma)", "procedure": "as §1"}, "[4]": {"test_system": "H1299 (lung)", "assay": "In vitro cytotoxic activity (MTT) assay, H1299", "type": "cell-based", "settings": "Homo sapiens, NCI-H1299; cells exposed for 96 hours; 50% inhibition of cell proliferation; read-out: Cytotoxicity activity IC50, H1299 (lung)", "procedure": "as §1"}, "[5]": {"test_system": "MIAPaCa-2 (pancreas)", "assay": "In vitro cytotoxic activity (MTT) assay, MIAPaCa-2", "type": "cell-based", "settings": "Homo sapiens, MIA PaCa-2; cells exposed for 96 hours; 50% inhibition of cell proliferation; read-out: Cytotoxicity activity IC50, MIAPaCa-2 (pancreas)", "procedure": "as §1"}, "[6]": {"test_system": "HL60 (leukemia)", "assay": "In vitro cytotoxic activity (MTT) assay, HL60", "type": "cell-based", "settings": "Homo sapiens, HL-60; cells exposed for 96 hours; 50% inhibition of cell proliferation; read-out: Cytotoxicity activity IC50, HL60 (leukemia)", "procedure": "as §1"}, "[7]": {"test_system": "MCF7 (breast)", "assay": "In vitro cytotoxic activity (MTT) assay, MCF7", "type": "cell-based", "settings": "Homo sapiens, cells exposed for 96 hours, 50% inhibition of cell proliferation, read-out: Cytotoxicity activity IC50, MCF7 (breast)", "procedure": "as §1"}, "[8]": {"test_system": "MDA-MB-231 (breast)", "assay": "In vitro cytotoxic activity (MTT) assay, MDA-MB-231", "type": "cell-based", "settings": "Homo sapiens, cells exposed for 96 hours, 50% inhibition of cell proliferation, read-out: Cytotoxicity activity IC50, MDA-MB-231 (breast)", "procedure": "as §1"}, "[9]": {"molecular_target": "T1, recombinant human CK2 (RRββ-holoenzyme) (Homo sapiens, UniProt P68400)", "T1 construct": "purchased Millipore", "T1 sequence (P68400 whole entry)": "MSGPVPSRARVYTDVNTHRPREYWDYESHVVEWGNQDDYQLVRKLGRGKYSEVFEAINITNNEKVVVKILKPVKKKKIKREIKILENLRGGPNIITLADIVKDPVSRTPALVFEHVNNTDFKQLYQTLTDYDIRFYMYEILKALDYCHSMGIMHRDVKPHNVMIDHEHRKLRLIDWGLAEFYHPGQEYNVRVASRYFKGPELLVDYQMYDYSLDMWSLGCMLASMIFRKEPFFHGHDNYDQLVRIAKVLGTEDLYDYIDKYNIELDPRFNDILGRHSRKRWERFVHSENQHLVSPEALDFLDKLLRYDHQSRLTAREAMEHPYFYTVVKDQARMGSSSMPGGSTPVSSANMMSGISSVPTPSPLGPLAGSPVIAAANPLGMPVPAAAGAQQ", "T1 sequence (P67870 whole entry partner)": "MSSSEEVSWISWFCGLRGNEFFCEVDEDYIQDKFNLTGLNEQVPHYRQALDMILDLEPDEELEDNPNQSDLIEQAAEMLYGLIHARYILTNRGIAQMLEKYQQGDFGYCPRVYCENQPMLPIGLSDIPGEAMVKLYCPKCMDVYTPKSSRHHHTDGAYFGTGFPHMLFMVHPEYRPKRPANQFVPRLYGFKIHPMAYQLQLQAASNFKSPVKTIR", "assay": "CK2 Kinase Assay (33P-ATP, filter plate)", "type": "biochemical", "settings": "final ATP concentration 15 μM; 10 min at 30° C.; read-out: protein kinase CK2 IC50", "procedure": "CK2 Kinase Assay was conducted using the protocol as described in Pierre F. et al; J. Med. Chem. 2011, 54, 635-654. The tested compounds in aqueous solution were added at a volume of 10 μL to a reaction mixture comprising 10 μL of assay dilution buffer (ADB; 20 mM MOPS, pH 7.2, 25 mM β-glycerol phosphate, 5 mM EGTA, 1 mM sodium orthovanadate, and 1 mM dithiothreitol), 10 μL of substrate peptide (RRRDDDSDDD, dissolved in ADB at a concentration of 1 mM), 10 μL of recombinant human CK2 (RRββ-holoenzyme, 25 ng dissolved in ADB; Millipore). Reactions were initiated by the addition of 10 μL of ATP solution (90% 75 mMMgCl2, 75 µM ATP (final ATP concentration: 15 μM) dissolved in ADB; 10% [γ-33P] ATP (stock 1 mCi/100 μL; 3000 Ci/mmol (Perkin-Elmer) and maintained for 10 min at 30° C. The reactions were quenched with 100 μL of 0.75% phosphoric acid and then transferred to and filtered through a phosphor cellulose filter plate (Millipore). After washing each well five times with 0.75% phosphoric acid, the plate was dried under vacuum for 5 min and, following the addition of 15 μL of scintillation fluid to each well, the residual radioactivity was measured using a Wallac luminescence counter. The IC50 values were derived from eight concentrations of test inhibitors."}}, "data": [{"smiles": "Clc1cccc(Nc2nc3cnccc3c3c2[nH]c2cnccc23)c1", "note": "[Compound 1, N-(3-chlorophenyl)-7H-pyrido[4′,3′:4,5]pyrrolo[2,3-c][1,7]naphthyridin-6-amine]", "values": [{"measurement": "IC50", "setting": "[1]", "result": 900, "unit": "nM"}, {"measurement": "IC50", "setting": "[2]", "result": 1100, "unit": "nM"}, {"measurement": "IC50", "setting": "[3]", "result": 4200, "unit": "nM"}, {"measurement": "IC50", "setting": "[4]", "result": 1600, "unit": "nM"}, {"measurement": "IC50", "setting": "[5]", "result": 2800, "unit": "nM"}, {"measurement": "IC50", "setting": "[6]", "result": 3600, "unit": "nM"}, {"measurement": "IC50", "setting": "[7]", "result": 4900, "unit": "nM"}, {"measurement": "IC50", "setting": "[8]", "result": 4100, "unit": "nM"}, {"measurement": "IC50", "setting": "[9]", "result": 295, "unit": "nM"}]}]}
